Test system: healthy volunteers
Assay: Phase 1 (FLE-001) pulmonary safety: spirometry, SpO2, auscultation, chest x-ray
Format: in vivo, human
Description: Pulmonary safety was assessed by performing lung spirometry tests and measuring peripheral oxygen saturation (SpO2%) prior to dosing and at various times after completion of the inhalation. Lung spirometry tests evaluated all lung function parameters, including forced vital capacity (FVC), forced expiratory volume in 1 second (FEV1), peak expiratory flow (PEF), and forced expiratory flow at 25% and 75% intervals (FEF25-75). Auscultation and respiration rate were also measured prior to dosing and at various times after inhalation. Chest x-rays were performed on subjects before and after flecainide inhalation.

[1] = Cohort 1, 20 mg eTLD, 3 hours Post-dose
[2] = Cohort 1, 20 mg eTLD, 12 hours Pre-dose
[3] = Cohort 1, 20 mg eTLD, 24 hours Post-dose
[4] = Cohort 2, 40 mg eTLD, 3 hours Post-dose
[5] = Cohort 2, 40 mg eTLD, 12 hours Pre-dose
[6] = Cohort 2, 40 mg eTLD, 24 hours Post-dose

O=C(NCC1CCCCN1)c1cc(OCC(F)(F)F)ccc1OCC(F)(F)F (stereo not shown) [flecainide]
Oxygen Saturation (SpO2%), mean (Cohort 1, 20 mg eTLD, 15 min Postdose): 97%
Oxygen Saturation (SpO2%), mean (Cohort 1, 20 mg eTLD, 30 min Postdose): 97%
Oxygen Saturation (SpO2%), mean (Cohort 1, 20 mg eTLD, 45 min Postdose): 97%
Oxygen Saturation (SpO2%), mean (Cohort 1, 20 mg eTLD, 60 min Postdose): 97%
Oxygen Saturation (SpO2%), mean (Cohort 1, 20 mg eTLD, 75 min Postdose): 98%
Oxygen Saturation (SpO2%), mean (Cohort 1, 20 mg eTLD, 90 min Postdose): 98%
Oxygen Saturation (SpO2%), mean (Cohort 1, 20 mg eTLD, 105 min Postdose): 97%
Oxygen Saturation (SpO2%), mean (Cohort 1, 20 mg eTLD, 120 min Postdose): 98%
FEF25-75, mean [1]: 5.48 L/s
FEV1, mean [1]: 5.27 L
FVC, mean [1]: 6.42 L
PEF, mean [1]: 10.87 L/s
FEF25-75, mean [2]: 5.38 L/s
FEV1, mean [2]: 5.26 L
FVC, mean [2]: 6.02 L
PEF, mean [2]: 11.30 L/s
FEF25-75, mean [3]: 5.40 L/s
FEV1, mean [3]: 5.18 L
FVC, mean [3]: 6.36 L
PEF, mean [3]: 11.09 L/s
Oxygen Saturation (SpO2%), mean (Cohort 1, 20 mg eTLD, Predose): 98%
Oxygen Saturation (SpO2%), mean (Cohort 2, 40 mg eTLD, 15 min Postdose): 96%
Oxygen Saturation (SpO2%), mean (Cohort 2, 40 mg eTLD, 30 min Postdose): 97%
Oxygen Saturation (SpO2%), mean (Cohort 2, 40 mg eTLD, 45 min Postdose): 96%
Oxygen Saturation (SpO2%), mean (Cohort 2, 40 mg eTLD, 60 min Postdose): 96%
Oxygen Saturation (SpO2%), mean (Cohort 2, 40 mg eTLD, 75 min Postdose): 97%
Oxygen Saturation (SpO2%), mean (Cohort 2, 40 mg eTLD, 90 min Postdose): 97%
Oxygen Saturation (SpO2%), mean (Cohort 2, 40 mg eTLD, 105 min Postdose): 97%
Oxygen Saturation (SpO2%), mean (Cohort 2, 40 mg eTLD, 120 min Postdose): 97%
FEF25-75, mean [4]: 4.34 L/s
FEV1, mean [4]: 4.96 L
FVC, mean [4]: 6.19 L
PEF, mean [4]: 10.66 L/s
FEF25-75, mean [5]: 5.00 L/s
FEV1, mean [5]: 5.04 L
FVC, mean [5]: 6.18 L
PEF, mean [5]: 10.83 L/s
FEF25-75, mean [6]: 4.80 L/s
FEV1, mean [6]: 5.08 L
FVC, mean [6]: 6.39 L
PEF, mean [6]: 11.14 L/s
Oxygen Saturation (SpO2%), mean (Cohort 2, 40 mg eTLD, Predose): 97%
respiratory rate (Cohorts 1, 2, 3, 5): minimal or no changes
standard lung spirometry measurements and peripheral O2 saturation (Cohorts 1, 2, 3, 5): normal before and after
SpO2 pre-dose and post-dose values (Cohorts 1 and 2): 97-98%
lung function parameters (FVC, FEV1, PEF, FEF25-75) pre-dose and post-dose (Cohorts 1 and 2): within the normal range for the population studied
Auscultation (inhaled 20, 30, 40 mg eTLD): normal
Chest x-rays (inhaled 20, 30, 40 mg eTLD): normal and showed no changes
respiration rate (inhaled 20, 30, 40 mg eTLD): No changes

From US20230092389A1, “UNIT DOSES, AEROSOLS, KITS, AND METHODS FOR TREATING HEART CONDITIONS BY PULMONARY ADMINISTRATION” (InCarda Therapeutics, Inc., priority 2017, published 2023)
